Among the data in publication PMC8588462, “Hybrid Chelator-Based PSMA Radiopharmaceuticals: Translational Approach” (Molecules, 2021) are IC50 values, retold here.

The target in the assay is T1, Prostate-specific membrane antigen (PSMA) (Homo sapiens, UniProt Q04609).
T1 construct: gene FOLH1; native full-length membrane protein on intact LNCaP prostate cancer cells; homodimer (known biology)
Put plainly: competitive radioligand binding, LNCaP cells, filter plates. Type of assay: cell-based. The conditions noted are these: 0.75 nM [68Ga]Ga-PSMA-10 tracer, room temperature, 45 min; non-labelled ligand (no metal). An excerpt:
competitive radioligand binding, LNCaP cells, filter plates on Prostate-specific membrane antigen (PSMA)

T1 sequence (Q04609 whole entry): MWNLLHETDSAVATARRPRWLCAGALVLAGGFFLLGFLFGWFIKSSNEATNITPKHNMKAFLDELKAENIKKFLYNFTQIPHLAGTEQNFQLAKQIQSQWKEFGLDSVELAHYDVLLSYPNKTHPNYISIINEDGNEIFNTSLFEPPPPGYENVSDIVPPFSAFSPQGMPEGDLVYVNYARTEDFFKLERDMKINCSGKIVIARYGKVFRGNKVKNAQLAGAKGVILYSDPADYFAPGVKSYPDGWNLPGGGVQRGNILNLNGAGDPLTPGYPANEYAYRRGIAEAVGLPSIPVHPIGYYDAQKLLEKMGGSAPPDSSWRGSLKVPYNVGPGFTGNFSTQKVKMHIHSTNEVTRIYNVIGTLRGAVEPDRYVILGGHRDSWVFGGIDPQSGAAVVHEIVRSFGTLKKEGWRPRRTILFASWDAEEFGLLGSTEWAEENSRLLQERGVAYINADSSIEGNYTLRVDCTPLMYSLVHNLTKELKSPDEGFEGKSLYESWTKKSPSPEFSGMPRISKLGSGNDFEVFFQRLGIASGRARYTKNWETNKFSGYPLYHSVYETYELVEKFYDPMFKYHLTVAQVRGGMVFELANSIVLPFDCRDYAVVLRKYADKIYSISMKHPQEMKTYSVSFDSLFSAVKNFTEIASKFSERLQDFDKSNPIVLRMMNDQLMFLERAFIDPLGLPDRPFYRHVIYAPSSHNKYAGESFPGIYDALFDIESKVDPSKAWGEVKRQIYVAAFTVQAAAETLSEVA

As to `O=C(O)CCc1ccc(O)c(CN(CCN(CC(=O)O)Cc2cc(CCC(=O)NCCCCCC(=O)NCCCC[C@H](NC(=O)N[C@@H](CCC(=O)O)C(=O)O)C(=O)O)ccc2O)CC(=O)O)c1` [PSMA-11], the half-maximal inhibitory concentration (IC50) (commonly the concentration that inhibits the measured activity by half) came to 26.2 ± 2.4 nM.
`CN(CC(=O)O)C1(CCCCC(=O)NCCNc2c(NCCCC[C@H](NC(=O)N[C@@H](CCC(=O)O)C(=O)O)C(=O)O)c(=O)c2=O)CN(CC(=O)O)CCN(CC(=O)O)C1` [compound 14, DATA^5m.SA.KuE] returned a concentration for half-maximal inhibition (IC50) of 51.1 ± 5.5 nM.
